Source: PMC8711299, “Rational Designed Hybrid Peptides Show up to a 6-Fold Increase in Antimicrobial Activity and Demonstrate Different Ultrastructural Changes as the Parental Peptides Measured by BioSAXS” (Frontiers in Pharmacology, 2021)
Values after ≈ are worked out from the molar mass of the structure shown. Positions of bridges follow the written chain, without caps; N, C: chain ends. Residues, ends and D or L forms follow the SMILES beside them. No end group written: not given here.

How the values were obtained:
[1] = test system: E. coli; test: MIC of standard antibiotics against E. coli (BioSAXS comparison); assay type: cell-based, Escherichia coli; conditions: used at 3x MIC, 240 min incubation, for BioSAXS
Text: To discuss the obtained results in the context of conventional antibiotics, compared the peptides to three antibiotics, tigecycline (bacteriostatic activity by binding to the […] ribosomal subunit of the bacterial ribosome), chloramphenicol (bacteriostatic activity by binding to the […] ribosomal subunit of the bacterial ribosome), and rifampicin (bactericidal activity by inhibiting the DNA-dependent RNA polymerase activity), see Figure 5. […] As the antibiotics have slower kill kinetics than the AMPs, 240 min incubation time was used. […] The PCA values of Bac5-v291 and hyP7B5GK deviate strongly from the untreated controls and the standard antibiotics. The PCA values of peptides hyP7B5Cys and optP7 are nearest to chloramphenicol.

[2] = test system: Pseudomonas aeruginosa PAO1; assay type: cell-based
Text: (§1) In this project the following bacterial strains were used: 1) methicillin-resistant Staphylococcus aureus (S. aureus) HO 5096 0412 (a neonatal infection isolate, isolated in Ipswich, England in 2005, obtained from Jody Lindsay (St. George’s, University of London), 2) Escherichia coli (E. coli, UB1005, F-, LAM-, gyrA37, relA1, spoT1, metB1, LAMR) used solely for transmission electron microscopy, E. coli (ATCC 25922), 3) Pseudomonas aeruginosa PAO1 obtained from Dr Robert E.W. Hancock (Department of Microbiology and Immunology, University of British Columbia).
(§2) Mueller-Hinton broth (MHb) (Merck, Life Science UK Limited, Dorset, UK)) was prepared concurring to the manufacturer’s directions was used to grow the bacterial strains. Liquid bacterial cultures were incubated at 37°C for 18–20 h on a shaker, bacterial culture on solid media was incubated for 18–24 h at 37°C.
(§3) A broth microdilution assay was applied to determine the minimum inhibitory concentrations (MIC) in MHb for both, using 5 × 10^5 CFU/ml (MICs in Table 1) and 10^8 CFU/ml (BioSAXS and electron microscopy, values in Table 2). A detailed description of the method can be found in the open-source publication by von Gundlach et al. (von Gundlach et al., 2019a).

[3] = test system: methicillin-resistant Staphylococcus aureus HO 5096 0412 (MRSA); assay type: cell-based; conditions: methicillin-resistant HO 5096 0412
Text: as §1, §2, §3

[4] = test system: E. coli; assay type: cell-based, Escherichia coli
Text: as §1, §2, §3

[5] = test system: human red blood cells; assay type: cell-based; conditions: for HC50 (peptide concentration needed to induce haemolysis in human red blood cells at 50%): red cells of human, 1 h
Description: The protocol to determine the haemolytic activity of the peptides and HC50 values were described previously ([Grimsey et al., 2020]). Briefly, human blood was washed and diluted with PBS (4% v/v) and incubated with a pre-made dilution series of the peptides and incubated for 1 h at 37 C. The 100% haemolysis value was achieved by incubation with Triton X (1% final concentration). Haemoglobin was measured at 414 and 546 nm using an ELISA plate reader. HC50 values were determined using the Prism software (GraphPad).

[6] = test system: E. coli; assay type: cell-based, Escherichia coli; remark: listed apart in the source
Text: as §3
Quite early on in our drug development process, we have selected optP7 over optP1 for a slightly better MIC against P. aeruginosa. Further investigations were performed with peptide optP7 only. Firstly, we investigated E. coli cells treated with optP7 by transmission electron microscopy (TEM) to get a better understanding of the mode of action/ultrastructural changes of the peptides on E. coli, see Figure 1. In order to achieve a sufficient number of bacteria to form a pellet, a bacterial concentration of 1 × 10^8 CFU/ml was used. […] The outer membrane of E. coli of the untreated sample appears thick and relatively smooth (Figure 1, arrow 1), whereas for the peptide treated one, it was damaged (Figure 1, arrow 2) and blebbing was visible (Figure 1, arrow 3), where lipopolysaccharides (LPS) form small vesicles and are shed from the cell. The inner membrane for both, the untreated control (Figure 1A, arrow 4), and the peptide treated E. coli (Figure 1, arrow 5) seemed to remain intact and no spillage of the cytosol content was observed. The DNA in untreated bacterial cells comprised dispersed fibrils in the cytoplasm, see Figure 1, dotted lines. The bacterial DNA is concentrated in a ‘DNA–plasm’ called the nucleoid ([Ohniwa et al., 2007]). The peptide optP7 creates an enlarged and spherical nucleoid, dotted line in Figure 1., typically seen in DNA-dependent RNA polymerase inhibitors and protein synthesis inhibitors. Compared to the untreated bacteria (Figure 1, arrow 6), the peptide treated ones show more pronounced granular substructures (Figure 1, arrow 7) in the cytosol could indicate aggregation of cytosolic proteins. These substructures were observed before using small AMPs ([Von Gundlach et al., 2016a], [2019]).
Small-angle X-ray scattering for biological samples (BioSAXS) on the P12 beamline can be used to measure ultrastructural changes within the bacteria in the range between 2 and 157 nm, from which we used the range from 20 to 120 nm for analysis of the bacteria after treatment with the antimicrobial peptides. […] The MICs for the selected peptides against E. coli at 1 × 10^8 CFU/ml were determined (Table 2). […] To quantify the subtle changes between the different treatments we used a PCA analysis using SciXMiner and the “Peptide Extension” tool ([Mikut, 2010]; [Mikut et al., 2017]) (Figure 4). […]

Row | Molecule | MIC against E. coli (standard antibiotics) [1] [µg/mL] | MIC PA (P. aeruginosa) [2] [µM] | MIC MRSA [3] [µM] | MIC E. coli [4] [µM] | Therapeutic window HC50/MIC(MRSA) [5] | HC50 (peptide concentration needed to induce haemolysis in human red blood cells at 50%) [5] [µM] | MIC E. coli at 1 × 10^8 CFU/ml [6] [µM]
1 | O=C(N[C@H](CO)[C@H](O)c1ccc([N+](=O)[O-])cc1)C(Cl)Cl [chloramphenicol] | 8 |  |  |  |  |  | 
2 | CC[C@H](C)[C@H](NC(=O)[C@H](Cc1c[nH]c2ccccc12)NC(=O)[C@H](CCCNC(=N)N)NC(=O)[C@@H](NC(=O)[C@H](CCCNC(=N)N)NC(=O)[C@H](CCCNC(=N)N)NC(=O)[C@H](CCCCN)NC(=O)CNC(=O)[C@H](CCCCN)NC(=O)[C@@H]1CSSC[C@H](NC(=O)[C@H](CCCCN)NC(=O)CNC(=O)[C@H](CCCCN)NC(=O)[C@H](CCCNC(=N)N)NC(=O)[C@H](Cc2c[nH]c3ccccc23)NC(=O)[C@H](Cc2ccccc2)NC(=O)[C@@H]2CCCN2C(=O)[C@@H]2CCCN2C(=O)[C@H](CCCNC(=N)N)NC(=O)[C@@H](NC(=O)[C@@H]2CCCN2C(=O)[C@H](CCCNC(=N)N)NC(=O)[C@H](CCCNC(=N)N)NC(=O)[C@H](CCCNC(=N)N)NC(=O)[C@@H](NC(=O)[C@@H]2CCCN2C(=O)[C@H](CCCNC(=N)N)NC(=O)[C@H](CCCNC(=N)N)NC(=O)[C@H](Cc2c[nH]c3ccccc23)NC(=O)[C@@H](N)CCCNC(=N)N)[C@@H](C)CC)[C@@H](C)CC)C(=O)N[C@@H](CO)C(=O)N[C@@H](CO)C(=O)N1)C(C)C)C(=O)N[C@H](C(=O)N[C@@H](Cc1c[nH]c2ccccc12)C(N)=O)[C@@H](C)CC [hyP7B5Cys] (H-RWRRPIRRRPIRPPFWRKGKCSSCKGKRRVRWIIW-NH2; disulfide 21-24) |  | 2 (≈ 9.15 µg/mL) | 1 (≈ 4.57 µg/mL) | 0.6 (≈ 2.74 µg/mL) | >102 | 102 | 4
3 | CO[C@H]1/C=C/O[C@@]2(C)Oc3c(C)c(O)c4c(O)c(c(/C=N/N5CCN(C)CC5)c(O)c4c3C2=O)NC(=O)/C(C)=C\C=C\[C@H](C)[C@H](O)[C@@H](C)[C@@H](O)[C@@H](C)[C@H](OC(C)=O)[C@@H]1C [rifampicin] | 15 |  |  |  |  |  | 
4 | CN(C)c1cc(NC(=O)CNC(C)(C)C)c(O)c2c1C[C@H]1C[C@H]3[C@H](N(C)C)C(O)=C(C(N)=O)C(=O)[C@@]3(O)C(O)=C1C2=O [tigecycline] | 4 |  |  |  |  |  | 
5 | KIILRIRWR-NH2 [optP1] |  | 6 | 1.5 | 1 | 137 | 205 | 
6 | KIILRIRWRGGGVRKPPYLPRPRPRPL-NH2 [hyP1CoG1] |  | 1 | 2.5 | 1 | >62.8 | >157 | 
7 | KRRVRWIIW-NH2 [optP7] |  | 3 | 6 | 1.5 | >32.5 | >195 | 14
8 | KRRVRWIIWGGGVRKPPYLPRPRPRPL-NH2 [hyP7CoG2] |  | 2.5 | 5 | 2.5 | >30.8 | >154 | 
9 | RWRRPIRRRPIRPPFWR-NH2 [Bac5-v291] |  | 27 | 27 | 1.7 | >10.3 | >278 | 1.1
10 | RWRRPIRRRPIRPPFWRGGGKRRVRWIIW-NH2 [hyP7B5G] |  | 2 | 2 | 2 | 51 | 102 | 
11 | RWRRPIRRRPIRPPFWRKGKGKGKRRVRWIIW-NH2 [hyP7B5GK] |  | 2 | 1 | 1 | >120 | >120 | 4
12 | RWRRPIRRRPIRPPFWRKKKKRRVRWIIW-NH2 [hyP7B5K] |  | 2 | 2 | 2 | 41 | 82 | 
13 | VRKPPYLPRPRPRPL-NH2 [consP1] |  | >139 | >139 | 35 |  | >139 | 
14 | VRKPPYLPRPRPRPLGGGKIILRIRWR-NH2 [hyP1CoG2] |  | 2.5 | 2.5 | 1 | >62.8 | >157 | 
15 | VRKPPYLPRPRPRPLGGGKRRVRWIIW-NH2 [hyP7CoG1] |  | 5 | 5 | 1 | >30.8 | >154 | 
